Drawing on the METLIN SMRT retention time set (Domingo-Almenara et al. 2019), this text covers RP-LC retention time for 80 compounds.

The data set can be described thus: gradient 5% acetonitrile 3 min, to 50% in 2 min, to 85% in 15 min, held 3 min, 100 µL/min. Conditions: column: Zorbax Extend-C18 2.1 x 50 mm; eluents: water / acetonitrile, 0.1% formic acid. The procedure, abridged: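 Retention time was recorded from adduct peaks, which were picked computationally and each inspected manually. Pure standards ran in mixtures of ~100 molecules on HPLC coupled to a quadrupole time-of-flight mass spectrometer, in positive and negative ionization mode, through a Zorbax Extend-C18 column (2.1 × 50 mm, 1.8 μm) at 100 μL/min. Eluents were water and acetonitrile, each with 0.1% formic acid.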
`Cc1cccc(-n2c(=O)c3c(cc(C)n3C)n(CC(=O)Nc3ccc4c(c3)OCO4)c2=O)c1` registered an RP-LC retention time of 837 s. For `CCOC(=O)c1noc2nc(C)nc(Nc3cccc(C)c3)c12` the value was 1170 s; for `CCc1nn2c(CNS(=O)(=O)Cc3cccc(F)c3)c(-c3ccccc3)nc2s1`, 972 s. On to `Cc1cc(Cl)ccc1NC(=O)C1CCN(S(=O)(=O)c2ccc3c(c2)NC(=O)CO3)CC1`, for which the RP-LC retention time came to 839 s. The result for `COc1ccccc1OCCNS(=O)(=O)c1cc2n(c1)CCCNC2=O` reads 654 s. Regarding `CCOC(=O)c1c(S(=O)(=O)N2CCC(C(=O)Nc3cccc(C)c3)CC2)c(C)n(C)c1C`, the RP-LC retention time was determined as 875 s. In turn, `Cc1occc1C(=O)Nc1nc(-c2ccc(C(C)(C)C)cc2)cs1` had an RP-LC retention time of 1300 s. Compound `O=C1[C@H]2CN(Cc3ccc(Cl)c(F)c3)C[C@H]2C(=O)N1CCc1ccccc1` registered an RP-LC retention time of 901 s. For `COCC(C)(O)CNC(=O)Nc1c(F)cccc1F` (stereo not given), the RP-LC retention time is 595 s. For `CCn1ccc2sc(C)c(C(=O)NCc3ccc(F)cc3Cl)c2c1=O` the value was 916 s; for `COc1ccccc1C(=O)N1CCN(c2nc3ccccc3n(C)c2=O)CC1`, 830 s. For `CCc1nc(-c2csc(S(=O)(=O)N3CCCC(C(=O)Nc4ccc(F)c(F)c4)C3)c2)no1` (stereo not given), the RP-LC retention time turned out to be 1090 s.

Compound `CCOc1ccc(C(=O)NC2CCN(c3cc(-c4ccccc4)[nH]n3)C2)cc1` (stereo not given) registered an RP-LC retention time of 741 s.

`Cc1ccc2nc(NC3=NCN(CCO)CN3)nc(C)c2c1` had an RP-LC retention time of 593 s. For `Cc1cnn(Cc2c(C(=O)N3C[C@@H](C(N)=O)[C@H](c4n[nH]c(C)n4)C3)noc2C)c1` the value was 590 s. For `O=S1(=O)N=CN(c2ccc3c(c2)CCC3)c2ncccc21` the value was 862 s. Consider `COc1ccc(Nc2nc(-c3nnn(-c4cc(F)ccc4F)c3C)ns2)cc1`, for which the RP-LC retention time stood at 949 s. The result for `O=C(NCCn1nc(-n2cccn2)ccc1=O)c1cc2ccccc2o1` reads 669 s.

The compound `O=C(c1ccccc1C(F)(F)F)N1CCc2nc(-c3ccc(Cl)cc3)ncc2C1` yielded an RP-LC retention time of 1060 s. In turn, `COC(=O)c1cccc(NC(=O)NC2CCN(c3ccccc3)C2=O)c1` (stereo not given) displayed an RP-LC retention time of 769 s. For `O=C(c1cc2cc(Br)ccc2[nH]1)N1CCCC1`, the RP-LC retention time was 905 s. On to `CCn1c(=O)c(C)nc2cc(-c3noc(-c4ccc(Br)cc4)n3)ccc21`, for which the RP-LC retention time worked out at 1270 s.

`CCn1c(=O)sc2cc(S(=O)(=O)N3CCC(C(=O)N4CCN(C)CC4)CC3)ccc21`: the RP-LC retention time is 600 s. The result for `Cc1ccc(-n2nc(C)c3sc(N4CCCC(C(=O)NC(C)c5ccccc5)C4)nc32)cc1` (stereo not given) reads 1190 s; that for `O=C(Cn1ccn(-c2cccc(Cl)c2)c(=O)c1=O)NCc1ccco1`, 641 s.

Turning to `CCNC(=O)CCCN1C(=O)CCn2nc(-c3cn(C)c4ccccc34)cc21`, the RP-LC retention time was determined as 695 s. The result for `O=C(O)c1ccc(S(=O)(=O)NCc2ccccn2)cc1` reads 543 s. For `CCCNC(=O)C1CC(=O)N(c2ccc3c(c2)CCN3C(=O)C2CC2)C1` (stereo not given) the value was 659 s; for `COc1ccccc1NC(=O)N1CCCC1c1nc(-c2ccccc2)no1` (stereo not given), 1010 s. The result for `Cc1oc(-c2[nH]ncc2C(=O)N2CCCC2)cc1S(=O)(=O)NCc1ccccc1Cl` reads 715 s. On to `COC(=O)c1ccccc1NC(=O)c1cnc2sc(C)cn2c1=O`, for which the RP-LC retention time stood at 759 s. The result for `CC(C)C(=O)Nc1ccc(-n2cnc(C(=O)NC3CCCCC3)c2)nc1` reads 765 s; that for `CCCc1noc(-c2cccnc2N2CCCN(Cc3cccc(C(F)(F)F)c3)CC2)n1`, 785 s; that for `O=C(NCc1cc(F)ccc1F)C1CCN(c2nnc(-c3ccccc3)o2)CC1`, 819 s. Take `CCc1nc2cc(-c3noc(-c4ccccc4Br)n3)ccc2o1`: the RP-LC retention time amounted to 1260 s. The result for `COc1ccccc1OCc1nn2c(-c3ccccn3)nnc2s1` reads 740 s; that for `Cc1ccc2c(Nc3ccc(S(N)(=O)=O)cc3)c(C(=O)N3CCCCCC3)cnc2n1`, 595 s; that for `COc1ccccc1CNC(=O)CN1CCN(Cc2ccc(F)cc2)C1=O`, 778 s. For `Clc1ccc(OCc2nc(-c3cccnc3)n[nH]2)cc1` the value was 634 s; for `O=C(Cn1nc2nc(Nc3ccc(F)cc3)ccn2c1=O)NC1CCCC1`, 701 s. For `c1ccc(-c2nc(-c3ccc(-n4ccnc4)nc3)no2)cc1` the value was 720 s. For the compound `O=C(Cn1cccc1-c1nnc(C2CCC2)o1)Nc1ccc(Cl)cc1`, the RP-LC retention time was 968 s. In turn, `CCCNC(=O)N1CC(Oc2cccc(-c3nc(-c4ccccc4)no3)c2)C1` displayed an RP-LC retention time of 1040 s. `Oc1ccc(C2NCCc3c2[nH]c2ccc(Cl)cc32)cc1O` (stereo not given) had an RP-LC retention time of 620 s. For `Cc1ccc(-n2nc(C)c3sc(N(C)CC(=O)N4CCN(c5ccccn5)CC4)nc32)cc1` the value was 709 s; for `CCN1C(=O)C(C)(C)COc2cc(NC(=O)Nc3ccccc3C(F)(F)F)ccc21`, 943 s; for `CCc1cc(=O)n(CC(=O)NCCOC)c(N2CCOCC2)n1`, 577 s.

`COc1ccc(-c2cnn3c(C)cc(C)nc23)cc1S(=O)(=O)NCCN1CCCC(C)C1` (stereo not given) gave an RP-LC retention time of 657 s. The compound `CCc1c(C(=O)O)nnn1Cc1c(F)cccc1Cl` came in with an RP-LC retention time of 742 s. Turning to `CCN(CC)CCCC(C)Nc1cc(Cl)cc2nc3ccc(OC)cc3cc12` (stereo not given), the RP-LC retention time was found to be 609 s.

Turning to `Cc1nc(-c2ccccc2)cc2nn(CC(=O)N3CCOCC3)c(=O)n12`, the RP-LC retention time turned out to be 700 s. For `COc1cc(NC(=O)NCC2(O)CCCC2)cc(OC)c1` the value was 660 s; for `O=C(Cc1ccccc1Cl)N1CCCN(c2nc3cccnc3o2)CC1`, 716 s; for `Cc1nn(-c2ccccc2)c2c1N(CCCC(=O)N1CCOCC1)C(=O)CS2`, 694 s. The result for `CC1(C(=O)NC2CC2)CC(c2ccccc2)=NO1` (stereo not given) reads 749 s; that for `CCNC(=O)CCc1cc2cc(C)ccc2[nH]c1=O`, 638 s. For `CCC(C)c1c(N)n(S(=O)(=O)c2ccc(C)cc2)oc1=O` (stereo not given) the value was 932 s. For the compound `Cn1c(=O)c2nc(SCCC(=O)Nc3ccc(N4CCOCC4)cc3)n(C)c2n(C)c1=O`, the RP-LC retention time came to 620 s.

Compound `CCOC(=O)c1ccc(NC(=O)CN2CCc3[nH]c4c(C)c(C)ccc4c(=O)c3C2)cc1` had an RP-LC retention time of 639 s. For `Cc1ccc2[nH]cc(CCNC(=O)C3CCCN(c4nccc(C)n4)C3)c2c1` (stereo not given) the value was 741 s. The result for `CCn1cc(-c2nc(C(=O)NCc3ccc(OC)cc3)cs2)c2cccnc21` reads 958 s; that for `COC(=O)C1=C(N)OC2=C(C(=O)CC(C)(C)C2)C1c1cccs1` (stereo not given), 821 s. As to `Cc1ccccc1-c1cc2c(=O)n(Cc3nc(-c4ccccc4)no3)ccn2n1`, the RP-LC retention time worked out at 1050 s. The result for `O=C1NCCCn2cc(S(=O)(=O)Nc3cccc(F)c3)cc21` reads 663 s; that for `COc1ccc(C2CCCN2C(=O)c2cnn3cccnc23)cc1` (stereo not given), 694 s. The compound `CCc1ccc(N2C(=O)CN(Cc3ccc(OC)cc3)[C@H]3CS(=O)(=O)C[C@H]32)cc1` displayed an RP-LC retention time of 866 s. The result for `NC(=O)c1cc(N2CCOCC2)nc2c(Cl)cccc12` reads 720 s; that for `CCn1cc(CCN2CCN(S(=O)(=O)c3ccc(C)c(Cl)c3)CC2)c2cccnc21`, 708 s; that for `CCOC(=O)c1nc(NC2CCN(Cc3ccccc3)CC2)c2ccccc2n1`, 607 s. For `CCOc1ccc(C2Cn3nnc(-c4nc(-c5ccc(C)cc5)no4)c3CO2)cc1` (stereo not given) the value was 1250 s. For `CCCC1c2nccn2CCCN1C(=O)c1ocnc1C` (stereo not given) the value was 558 s; for `COc1ccc(C(=O)Nc2nc(CC(=O)Nc3ccc4c(c3)OCCO4)cs2)cc1`, 754 s.

For the compound `O=S(=O)(Cc1ccccc1)N1CCCC(Cc2noc(-c3ccccc3)n2)C1` (stereo not given), the RP-LC retention time was 1050 s. For `CCOC(=O)C1CCN(C(=O)Cn2c(=O)oc3ccc(C(=O)N4CCCC4)cc32)CC1` the value was 699 s; for `CSc1ccc(CCNC(=O)c2nnc(-c3ccc(S(=O)(=O)N4CCCCC4)cc3)o2)cc1`, 1090 s; for `COc1ccc2c(c1)CCc1sc(NC(=O)c3cccc(Cl)c3)nc1-2`, 1180 s. Compound `COc1ccc(Cl)cc1NC(=O)Cn1nc2c(Oc3ccccc3C)nccn2c1=O` displayed an RP-LC retention time of 930 s. On to `Cc1nc(-c2ccccc2)cc2nn(CC(=O)N(C)c3ccccc3)c(=O)n12`, for which the RP-LC retention time is 917 s.

Regarding `COc1ccc(NC(=O)c2cc3c(=O)oc4ccccc4c3n2C)cc1Cl`, the RP-LC retention time was 1020 s.

On to `COc1ccc(N2CCN(C(=O)CCc3nnc4c5cc(-c6ccccc6)nn5ccn34)CC2)cc1`, for which the RP-LC retention time stood at 730 s.
